pIC50: −log10 of the molar value.
Assays:
[1] = molecular target: JAK2 (Homo sapiens (Human), UniProt O60674); assay: Jak biochemical HTRF assay, JAK2; details: recombinant purified GST-tagged catalytic domain; HTRF format; [ATP] 8.5 μM
Description: (§1) Jak Biochemical HTRF Assay Protocol
(§2) Subsequent reagent additions employed an Agilent Bravo.

[2] = molecular target: JAK1 (Homo sapiens (Human), UniProt P23458); assay: Jak biochemical HTRF assay, JAK1; details: recombinant purified GST-tagged catalytic domain; HTRF format; [ATP] 31.8 μM
Sequence of JAK1 (P23458 875-1153): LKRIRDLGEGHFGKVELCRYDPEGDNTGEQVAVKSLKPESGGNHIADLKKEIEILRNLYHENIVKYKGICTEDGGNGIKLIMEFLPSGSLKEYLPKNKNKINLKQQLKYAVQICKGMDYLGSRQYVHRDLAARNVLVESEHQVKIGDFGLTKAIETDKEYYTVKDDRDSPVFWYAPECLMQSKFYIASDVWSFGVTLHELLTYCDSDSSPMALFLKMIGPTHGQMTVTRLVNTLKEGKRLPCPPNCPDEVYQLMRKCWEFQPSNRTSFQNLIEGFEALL
Description: as §1, §2

Sequence of JAK2 (O60674 849-1124): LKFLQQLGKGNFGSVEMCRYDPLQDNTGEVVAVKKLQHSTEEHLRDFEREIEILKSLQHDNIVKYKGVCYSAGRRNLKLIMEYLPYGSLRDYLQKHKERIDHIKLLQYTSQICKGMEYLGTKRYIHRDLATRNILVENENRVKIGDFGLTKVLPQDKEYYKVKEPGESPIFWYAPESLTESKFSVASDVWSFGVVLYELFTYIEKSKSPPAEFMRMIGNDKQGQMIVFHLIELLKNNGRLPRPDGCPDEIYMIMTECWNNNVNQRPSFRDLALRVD

| SMILES | pIC50 [1] | pIC50 [2] |
| --- | --- | --- |
| N#C[C@@H]1CN(C(=O)OCCF)CC[C@H]1n1cc(C(N)=O)c(Nc2ccc(F)cc2)n1 (racemic) [Example 5-2, 2-fluoroethyl (3R,4R and 3S,4S)-4-{4-carbamoyl-3-[(4-fluorophenyl)amino]-1H-pyrazol-1-yl}-3-cyanopiperidine-1-carboxylate] | 6.98 | 8.40 |
| N#C[C@@H]1CN(C(=O)OCCCc2ccccc2)CC[C@H]1n1cc(C(N)=O)c(Nc2ccc(F)cc2)n1 (racemic) [Example 5-3, 3-phenylpropyl (3R,4R and 3S,4S)-4-{4-carbamoyl-3-[(4-fluorophenyl)amino]-1H-pyrazol-1-yl}-3-cyanopiperidine-1-carboxylate] | 6.00 | 7.36 |
| N#C[C@@H]1CN(C(=O)OC2COC2)CC[C@H]1n1cc(C(N)=O)c(Nc2ccc(F)cc2)n1 (racemic) [Example 5-5, oxetan-3-yl (3R,4R and 3S,4S)-4-{4-carbamoyl-3-[(4-fluorophenyl)amino]-1H-pyrazol-1-yl}-3-cyanopiperidine-1-carboxylate] | 6.73 | 7.92 |
| CN1CCC(COC(=O)N2CC[C@@H](n3cc(C(N)=O)c(Nc4ccc(F)cc4)n3)[C@H](C#N)C2)CC1 (racemic) [Example 5-7, (1-methylpiperidin-4-yl)methyl (3R,4R and 3S,4S)-4-{4-carbamoyl-3-[(4-fluorophenyl)amino]-1H-pyrazol-1-yl}-3-cyanopiperidine-1-carboxylate] | 5.96 | 7.64 |
| N#C[C@@H]1CN(C(=O)OCC2(N)CC2)CC[C@H]1n1cc(C(N)=O)c(Nc2ccc(F)cc2)n1 (racemic) [Example 5-8, (1-aminocyclopropyl)methyl (3R,4R and 3S,4S)-4-{4-carbamoyl-3-[(4-fluorophenyl)amino]-lH-pyrazol-1-yl}-3-cyanopiperidine-1-carboxylate] | 6.15 | 7.89 |
| N#C[C@@H]1CN(C(=O)OCCN2CCCC2)CC[C@H]1n1cc(C(N)=O)c(Nc2ccc(F)cc2)n1 (racemic) [Example 5-19, 2-pyrrolidin-1-ylethyl (3R,4R and 3S,4S)-4-{4-carbamoyl-3-[(4-fluorophenyl)amino]-1H-pyrazol-1-yl}-3-cyanopiperidine-1-carboxylate] | 5.96 | 7.66 |
| N#C[C@@H]1CN(C(=O)OCC(F)(F)CO)CC[C@H]1n1cc(C(N)=O)c(Nc2ccc(F)cc2)n1 (racemic) [Example 5-20, 2,2-difluoro-3-hydroxypropyl (3R,4R and 3S,4S)-4-{4-carbamoyl-3-[(4-fluorophenyl)amino]-1H-pyrazol-1-yl}-3-cyanopiperidine-1-carboxylate] | 6.97 | 8.30 |
| CN(C)CC(C)(C)COC(=O)N1CC[C@@H](n2cc(C(N)=O)c(Nc3ccc(F)cc3)n2)[C@H](C#N)C1 (racemic) [Example 5-21, 3-(dimethylamino)-2,2-dimethylpropyl (3R,4R and 3S,4S)-4-{4-carbamoyl-3-[(4-fluorophenyl)amino]-1H-pyrazol-1-yl}-3-cyanopiperidine-1-carboxylate] | < 5.83 | 7.06 |
| CN1CCC(OC(=O)N2CC[C@@H](n3cc(C(N)=O)c(Nc4ccc(F)cc4)n3)[C@H](C#N)C2)CC1 (racemic) [Example 5-26, 1-methylpiperidin-4-yl (3R,4R and 3S,4S)-4-{4-carbamoyl-3-[(4-fluorophenyl)amino]-1H-pyrazol-1-yl}-3-cyanopiperidine-1-carboxylate] | < 5.83 | 7.24 |
| COCCOC(=O)N1CC[C@@H](n2cc(C(N)=O)c(Nc3ccc(F)cc3)n2)[C@H](C#N)C1 (racemic) [Example 5-29, 2-methoxyethyl (3R,4R and 3S,4S)-4-{4-carbamoyl-3-[(4-fluorophenyl)amino]-1H-pyrazol-1-yl}-3-cyanopiperidine-1-carboxylate] | 6.69 | 8.05 |
| N#C[C@@H]1CN(C(=O)OC(CF)CF)CC[C@H]1n1cc(C(N)=O)c(Nc2ccc(F)cc2)n1 (racemic) [Example 5-31, 2-fluoro-1-(fluoromethyl)ethyl (3R,4R and 3S,4S)-4-{4-carbamoyl-3-[(4-fluorophenyl)amino]-1H-pyrazol-1-yl}-3-cyanopiperidine-1-carboxylate] | 6.88 | 8.22 |
| CC(OC(=O)N1CC[C@@H](n2cc(C(N)=O)c(Nc3ccc(F)cc3)n2)[C@H](C#N)C1)C1CC1 (mixture of isomers) [Example 5-35, 1-cyclopropylethyl (3R,4R and 3S,4S)-4-{4-carbamoyl-3-[(4-fluorophenyl)amino]-1H-pyrazol-1-yl}-3-cyanopiperidine-1-carboxylate] | 6.33 | 7.72 |
| N#C[C@@H]1CN(C(=O)OCCc2ccccc2)CC[C@H]1n1cc(C(N)=O)c(Nc2ccc(F)cc2)n1 (racemic) [Example 5-36, 2-phenylethyl (3R,4R and 3S,4S)-4-{4-carbamoyl-3-[(4-fluorophenyl)amino]-1H-pyrazol-1-yl}-3-cyanopiperidine-1-carboxylate] | 6.08 | 7.07 |
| N#C[C@@H]1CN(C(=O)OC2Cc3ccccc3C2)CC[C@H]1n1cc(C(N)=O)c(Nc2ccc(F)cc2)n1 (racemic) [Example 5-37, 2,3-dihydro-1H-inden-2-yl (3R,4R and 3S,4S)-4-{4-carbamoyl-3-[(4-fluorophenyl)amino]-1H-pyrazol-1-yl}-3-cyanopiperidine-1-carboxylate] | < 5.83 | 7.27 |
| N#C[C@@H]1CN(C(=O)OC2Cc3ccccc3C2)CC[C@@H]1n1cc(C(N)=O)c(Nc2ccc(F)cc2)n1 (racemic) [Example 5-42, 2,3-dihydro-1H-inden-2-yl (3R,4S and 3S,4R)-4-{4-carbamoyl-3-[(4-fluorophenyl)amino]-1H-pyrazol-1-yl}-3-cyanopiperidine-1-carboxylate] | < 5.83 | 6.19 |
| CC(OC(=O)N1CC[C@H](n2cc(C(N)=O)c(Nc3ccc(F)cc3)n2)[C@H](C#N)C1)C(F)(F)F (mixture of isomers) [Example 5-43, 2,2,2-trifluoro-1-methylethyl (3R,4S and 3S,4R)-4-{4-carbamoyl-3-[(4-fluorophenyl)amino]-1H-pyrazol-1-yl}-3-cyanopiperidine-1-carboxylate] | < 5.83 | 6.73 |
| N#C[C@@H]1CN(C(=O)OC(CF)CF)CC[C@@H]1n1cc(C(N)=O)c(Nc2ccc(F)cc2)n1 (racemic) [Example 5-47, 2-fluoro-1-(fluoromethyl)ethyl (3R,4S and 3S,4R)-4-{4-carbamoyl-3-[(4-fluorophenyl)amino]-1H-pyrazol-1-yl}-3-cyanopiperidine-1-carboxylate] | 5.87 | 6.92 |
| N#C[C@@H]1CN(C(=O)OCCc2ccccc2)CC[C@@H]1n1cc(C(N)=O)c(Nc2ccc(F)cc2)n1 (racemic) [Example 5-48, 2-phenylethyl (3R,4S and 3S,4R)-4-{4-carbamoyl-3-[(4-fluorophenyl)amino]-1H-pyrazol-1-yl}-3-cyanopiperidine-1-carboxylate] | < 5.83 | 6.39 |
| COCCOC(=O)N1CC[C@H](n2cc(C(N)=O)c(Nc3ccc(F)cc3)n2)[C@H](C#N)C1 (racemic) [Example 5-54, 2-methoxyethyl (3R,4S and 3S,4R)-4-{4-carbamoyl-3-[(4-fluorophenyl)amino]-1H-pyrazol-1-yl}-3-cyanopiperidine-1-carboxylate] | < 5.83 | 6.28 |
| N#C[C@@H]1CN(C(=O)OCCCc2ccccc2)CC[C@@H]1n1cc(C(N)=O)c(Nc2ccc(F)cc2)n1 (racemic) [Example 5-55, 3-phenylpropyl (3R,4S and 3S,4R)-4-{4-carbamoyl-3-[(4-fluorophenyl)amino]-1H-pyrazol-1-yl}-3-cyanopiperidine-1-carboxylate] | < 5.83 | 6.46 |
| N#C[C@@H]1CN(C(=O)OC2COC2)CC[C@@H]1n1cc(C(N)=O)c(Nc2ccc(F)cc2)n1 (racemic) [Example 5-57, oxetan-3-yl (3R,4S and 3S,4R)-4-{4-carbamoyl-3-[(4-fluorophenyl)amino]-1H-pyrazol-1-yl}-3-cyanopiperidine-1-carboxylate] | 5.95 | 6.53 |
| N#C[C@@H]1CN(C(=O)OCCF)CC[C@@H]1n1cc(C(N)=O)c(Nc2ccc(F)cc2)n1 (racemic) [Example 5-58, 2-fluoroethyl (3R,4S and 3S,4R)-4-{4-carbamoyl-3-[(4-fluorophenyl)amino]-1H-pyrazol-1-yl}-3-cyanopiperidine-1-carboxylate] | 5.95 | 6.99 |
| N#C[C@@H]1CN(C(=O)OCC(F)(F)CO)CC[C@@H]1n1cc(C(N)=O)c(Nc2ccc(F)cc2)n1 (racemic) [Example 5-67, 2,2-difluoro-3-hydroxypropyl (3R,4S and 3S,4R)-4-{4-carbamoyl-3-[(4-fluorophenyl)amino]-1H-pyrazol-1-yl}-3-cyanopiperidine-1-carboxylate] | 5.92 | 7.16 |
| CC(OC(=O)N1CC[C@H](n2cc(C(N)=O)c(Nc3ccc(F)cc3)n2)[C@H](C#N)C1)C1CC1 (mixture of isomers) [Example 5-68, 1-cyclopropylethyl (3R,4S and 3S,4R)-4-{4-carbamoyl-3-[(4-fluorophenyl)amino]-1H-pyrazol-1-yl}-3-cyanopiperidine-1-carboxylate] | < 5.83 | 6.36 |
| CC(OC(=O)N1CC[C@@H](C#N)C(n2cc(C(N)=O)c(Nc3ccc(F)cc3)n2)C1)C(F)(F)F (mixture of isomers) [Example 5-70, 2,2,2-trifluoro-1-methylethyl (3S,4R and 3R,4S)-3-{4-carbamoyl-3-[(4-fluorophenyl)amino]-1H-pyrazol-1-yl}-4-cyanopiperidine-1-carboxylate] | 6.87 | 8.10 |
| N#C[C@@H]1CCN(C(=O)OC(CF)CF)CC1n1cc(C(N)=O)c(Nc2ccc(F)cc2)n1 (mixture of isomers) [Example 5-71, 2-fluoro-1-(fluoromethyl)ethyl (3S,4R and 3R,4S)-3-{4-carbamoyl-3-[(4-fluorophenyl)amino]-1H-pyrazol-1-yl}-4-cyanopiperidine-1-carboxylate] | 7.36 | 8.40 |

— patent publication US9394282B2, “Pyrazole carboxamides as Janus kinase inhibitors” (Merck Sharp & Dohme Corp., priority 2011, dated 2016)
